According to the Kinase Knowledgebase extract (Sharma et al. 2016):

The molecules below were run against EGFR (human) (UniProt P00533). Conditions: a431.
Sequence of EGFR (human) (P00533 whole entry, looked up): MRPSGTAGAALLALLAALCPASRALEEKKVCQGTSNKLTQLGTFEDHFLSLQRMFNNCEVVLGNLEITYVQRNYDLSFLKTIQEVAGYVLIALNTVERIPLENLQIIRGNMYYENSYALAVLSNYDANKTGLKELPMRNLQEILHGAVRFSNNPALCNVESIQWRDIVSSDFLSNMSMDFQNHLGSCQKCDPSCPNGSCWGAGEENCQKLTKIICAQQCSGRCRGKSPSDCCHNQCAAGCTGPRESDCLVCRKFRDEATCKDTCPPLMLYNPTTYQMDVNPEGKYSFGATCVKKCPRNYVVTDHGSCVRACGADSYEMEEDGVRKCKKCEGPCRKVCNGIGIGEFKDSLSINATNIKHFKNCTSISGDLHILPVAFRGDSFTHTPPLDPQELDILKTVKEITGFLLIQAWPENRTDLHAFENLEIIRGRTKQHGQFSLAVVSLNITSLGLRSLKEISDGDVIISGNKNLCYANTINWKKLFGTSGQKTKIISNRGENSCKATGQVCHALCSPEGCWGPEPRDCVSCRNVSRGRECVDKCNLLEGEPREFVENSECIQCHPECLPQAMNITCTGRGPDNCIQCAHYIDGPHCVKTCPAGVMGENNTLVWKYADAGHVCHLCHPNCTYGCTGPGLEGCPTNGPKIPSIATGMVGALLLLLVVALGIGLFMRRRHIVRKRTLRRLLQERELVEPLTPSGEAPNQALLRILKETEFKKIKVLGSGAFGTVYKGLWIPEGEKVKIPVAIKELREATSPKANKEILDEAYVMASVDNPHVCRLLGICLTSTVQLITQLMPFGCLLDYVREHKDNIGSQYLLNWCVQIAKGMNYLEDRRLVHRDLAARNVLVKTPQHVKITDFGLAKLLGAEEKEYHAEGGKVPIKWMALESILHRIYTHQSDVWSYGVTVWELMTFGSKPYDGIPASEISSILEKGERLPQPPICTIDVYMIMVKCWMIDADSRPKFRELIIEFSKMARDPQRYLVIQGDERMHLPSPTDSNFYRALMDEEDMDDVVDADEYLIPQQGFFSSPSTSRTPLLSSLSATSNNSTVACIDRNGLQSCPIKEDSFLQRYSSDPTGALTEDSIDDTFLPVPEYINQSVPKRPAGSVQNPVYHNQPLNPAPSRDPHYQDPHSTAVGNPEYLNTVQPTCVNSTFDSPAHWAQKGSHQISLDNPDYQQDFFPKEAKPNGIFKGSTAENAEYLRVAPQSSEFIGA
`COc1cc2nccc(Oc3ccc(C(=O)c4ccc(Cl)c(Cl)c4)cc3)c2cc1OC` gave an IC50 of 31 µM. Work on `COc1ccc(Oc2ccnc3cc(OC)c(OC)cc23)cc1` yielded an IC50 of 44 µM. `COc1cc2nccc(Oc3ccc(C(C)=O)cc3)c2cc1OC` was tested, and the IC50 was > 100 µM. In the case of `COc1cc2nccc(Oc3cccc(NC(=O)c4ccc(C(C)(C)C)cc4)c3)c2cc1OC`, the IC50 is reported as 0.65 µM. In the case of `COc1cc2nccc(Oc3ccc(C(=O)c4ccc(C#N)cc4)cc3)c2cc1OC`, the IC50 is reported as > 100 µM. In the case of `COc1cc2nccc(Oc3cccc(F)c3)c2cc1OC`, the IC50 is reported as 24 µM. `COc1cc2nccc(Oc3ccc(C(=O)c4cccc(F)c4)cc3)c2cc1OC` was tested, and the IC50 was 28 µM. In the case of `COc1cc2nccc(Oc3ccc(C(=O)C4CCCCC4)cc3)c2cc1OC`, the IC50 is reported as > 100 µM. In the case of `COc1cc2nccc(Oc3ccc(NC(=O)C4CCCC4)cc3)c2cc1OC`, the IC50 is reported as > 100 µM. In the case of `COc1cc2nccc(Oc3ccc(NC(=O)c4ccc(-c5ccccc5)cc4)cc3)c2cc1OC`, the IC50 is reported as > 100 µM. `COc1cc2nccc(Oc3ccc(Br)cc3)c2cc1OC` gave an IC50 of 20 µM. In the case of `COc1cc2nccc(Oc3ccc(C(=O)c4ccc(I)cc4)cc3)c2cc1OC`, the IC50 is reported as > 100 µM. In the case of `COc1cc2nccc(Oc3ccc(C(=O)c4ccc(Br)cc4)cc3)c2cc1OC`, the IC50 is reported as > 100 µM. Work on `COc1cc2nccc(Oc3ccc(N(C)C(=O)c4ccc(C(C)(C)C)cc4)cc3)c2cc1OC` yielded an IC50 of 6 µM. Work on `COc1cc2nccc(Oc3cccc(O)c3)c2cc1OC` yielded an IC50 of 19 µM. With `COc1cc2nccc(Oc3ccc(O)cc3)c2cc1OC` the IC50 was 16 µM. For `COc1cc2nccc(Oc3ccc(C(=O)c4ccco4)cc3)c2cc1OC`, the IC50 was > 100 µM. For `COc1cc2nccc(Oc3ccccc3)c2cc1OC`, the IC50 was 50 µM. In the case of `COc1ccc(C(=O)Nc2ccc(Oc3ccnc4cc(OC)c(OC)cc34)cc2)cc1OC`, the IC50 is reported as > 100 µM. For `COc1cc2nccc(Oc3ccccc3C(=O)c3ccccc3)c2cc1OC`, the IC50 was 14 µM. `COc1cc2nccc(Oc3cccc(N)c3)c2cc1OC` was tested, and the IC50 was 40 µM. In the case of `COc1cc2nccc(Oc3ccc(NC(=O)c4ccco4)cc3)c2cc1OC`, the IC50 is reported as > 100 µM. In the case of `COc1cc2nccc(Oc3ccc(NC(=O)C4CCCCC4)cc3)c2cc1OC`, the IC50 is reported as > 100 µM. In the case of `COc1cc2nccc(Oc3cccc([N+](=O)[O-])c3)c2cc1OC`, the IC50 is reported as 35 µM. `COc1cc2nccc(Oc3ccc(NC(=O)c4ccc([N+](=O)[O-])cc4)cc3)c2cc1OC` was tested, and the IC50 was > 100 µM. In the case of `COc1cc2nccc(Oc3ccc(C(=O)c4ccc(-c5ccccc5)cc4)cc3)c2cc1OC`, the IC50 is reported as > 100 µM. With `CCCCOc1ccc(C(=O)Nc2ccc(Oc3ccnc4cc(OC)c(OC)cc34)cc2)cc1` the IC50 was > 100 µM. `COc1cc2nccc(Oc3ccc(C(=O)c4ccccc4)cc3)c2cc1OC` gave an IC50 of 50 µM. With `COc1cc2nccc(Oc3ccc(C(=O)c4cccc(C)c4)cc3)c2cc1OC` the IC50 was 95 µM. For `CCCCc1ccc(C(=O)Nc2ccc(Oc3ccnc4cc(OC)c(OC)cc34)cc2)cc1`, the IC50 was > 100 µM. Work on `COc1cc2nccc(Oc3cccc(C(=O)c4ccccc4)c3)c2cc1OC` yielded an IC50 of 89 µM. With `COc1cc2nccc(Oc3ccc(C(=O)c4cccc(C(F)(F)F)c4)cc3)c2cc1OC` the IC50 was > 100 µM. `COc1cc2nccc(Oc3ccc(C(=O)c4ccc(C(F)(F)F)cc4)cc3)c2cc1OC` was tested, and the IC50 was > 100 µM. `COc1cc2nccc(Oc3ccc(NC(=O)c4ccc(Br)cc4)cc3)c2cc1OC` showed an IC50 of 48 µM. In the case of `COc1cc2nccc(Oc3cccc(OC)c3OC)c2cc1OC`, the IC50 is reported as > 100 µM. `COc1cc2nccc(Oc3ccc(NC(=O)c4ccc(C(F)(F)F)cc4)cc3)c2cc1OC` showed an IC50 of 93 µM. `COc1cc2nccc(Oc3ccc(C(=O)c4ccc(Cl)cc4)cc3)c2cc1OC` was tested, and the IC50 was > 100 µM. In the case of `COc1cc2nccc(Oc3ccccc3OC)c2cc1OC`, the IC50 is reported as 92 µM. With `COc1cc2nccc(Oc3c(OC)cccc3OC)c2cc1OC` the IC50 was 81 µM. For `COc1cc2nccc(Oc3ccc(C(=O)c4ccc(C)cc4)cc3)c2cc1OC`, the IC50 was > 100 µM. With `COc1cc2nccc(Oc3ccc(C(=O)Nc4ccc(C(C)(C)C)cc4)cc3)c2cc1OC` the IC50 was 30 µM. `COc1cc2nccc(Oc3ccc(NC(=O)c4cccs4)cc3)c2cc1OC` was tested, and the IC50 was > 100 µM. In the case of `COc1cc(OC)cc(Oc2ccnc3cc(OC)c(OC)cc23)c1`, the IC50 is reported as 49 µM. `COc1cc2nccc(Oc3ccc(C(=O)c4ccc([N+](=O)[O-])cc4)cc3)c2cc1OC` was tested, and the IC50 was > 100 µM. Work on `COc1cc2nccc(Oc3ccc(C(=O)c4ccccc4C(F)(F)F)cc3)c2cc1OC` yielded an IC50 of 21 µM. For `COc1cc2nccc(Oc3ccccc3N)c2cc1OC`, the IC50 was < 10 µM. For `COc1cc2nccc(Oc3ccc(NC(=O)c4ccc(C(C)(C)C)cc4)cc3)c2cc1OC`, the IC50 was > 100 µM. Work on `COc1cc2nccc(Oc3ccc(C(=O)c4ccc(F)cc4)cc3)c2cc1OC` yielded an IC50 of 75 µM. `COc1cccc(Oc2ccnc3cc(OC)c(OC)cc23)c1` was tested, and the IC50 was 18 µM. Work on `COc1cc2nccc(Oc3ccc(C(=O)c4cccs4)cc3)c2cc1OC` yielded an IC50 of 16 µM. `COc1cc2nccc(Oc3cccc(C(C)=O)c3)c2cc1OC` was tested, and the IC50 was > 100 µM. With `COc1cc2nccc(Oc3ccc(N)cc3)c2cc1OC` the IC50 was > 100 µM. `COc1cc2nccc(Oc3ccc(C(=O)c4ccc(C(C)(C)C)cc4)cc3)c2cc1OC` was tested, and the IC50 was > 100 µM. In the case of `COc1cc2nccc(Oc3ccc(NC(=O)c4ccc(C(C)=O)cc4)cc3)c2cc1OC`, the IC50 is reported as > 100 µM. `COc1cc2nccc(Oc3ccc(C(=O)c4ccc(OC(F)(F)F)cc4)cc3)c2cc1OC` was tested, and the IC50 was > 100 µM. `COc1cc2nccc(Oc3ccc(C(=O)c4ccccc4C)cc3)c2cc1OC` was tested, and the IC50 was 43 µM. `CCCCc1ccc(C(=O)c2ccc(Oc3ccnc4cc(OC)c(OC)cc34)cc2)cc1` was tested, and the IC50 was > 100 µM. Molecule `COc1cc2nccc(Oc3cccc(C)c3)c2cc1OC` has an IC50 of 14 µM. For `COc1cc2nccc(Oc3ccc(NC(C)=O)cc3)c2cc1OC`, the IC50 was > 100 µM. For `COC(=O)c1cccc(Oc2ccnc3cc(OC)c(OC)cc23)c1`, the IC50 was > 100 µM.

These molecules were tested against EGFR (UniProt P00533). Conditions: not given.
Sequence of EGFR (P00533 whole entry, looked up): as above
With `COc1cc2nccc(Oc3ccc(NC(=O)c4ccc(C(C)(C)C)cc4)cc3)c2cc1OC` the IC50 was > 100 µM. For `COc1cc2nccc(Oc3ccc(C(=O)c4ccc(C(C)(C)C)cc4)cc3)c2cc1OC`, the IC50 was > 100 µM.
